In the test the target is T1, mGluR2 receptor (metabotropic glutamate receptor 2) (Homo sapiens, UniProt Q14416).
T1 construct: expressed in transfected cells
Briefly: mGluR2 Potentiator Screen, FLIPR, EC10-EC20 glutamate challenge. Type of test: cell-based. Conditions: read-out: EC50. In a few lines: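 HEK cells stably co-expressing mGluR2 and Gα15, kept glutamine-free overnight, were loaded with Fluo-4 plus probenecid and GPT/pyruvate. Compounds (top 10 μM) were added ≥30 min before an EC10–EC20 glutamate challenge. Peak FLIPR fluorescence ratios were curve-fitted, excluding points above maximal effect, with maxima from on-plate standards.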

T1 sequence (Q14416 19-872, species assumed): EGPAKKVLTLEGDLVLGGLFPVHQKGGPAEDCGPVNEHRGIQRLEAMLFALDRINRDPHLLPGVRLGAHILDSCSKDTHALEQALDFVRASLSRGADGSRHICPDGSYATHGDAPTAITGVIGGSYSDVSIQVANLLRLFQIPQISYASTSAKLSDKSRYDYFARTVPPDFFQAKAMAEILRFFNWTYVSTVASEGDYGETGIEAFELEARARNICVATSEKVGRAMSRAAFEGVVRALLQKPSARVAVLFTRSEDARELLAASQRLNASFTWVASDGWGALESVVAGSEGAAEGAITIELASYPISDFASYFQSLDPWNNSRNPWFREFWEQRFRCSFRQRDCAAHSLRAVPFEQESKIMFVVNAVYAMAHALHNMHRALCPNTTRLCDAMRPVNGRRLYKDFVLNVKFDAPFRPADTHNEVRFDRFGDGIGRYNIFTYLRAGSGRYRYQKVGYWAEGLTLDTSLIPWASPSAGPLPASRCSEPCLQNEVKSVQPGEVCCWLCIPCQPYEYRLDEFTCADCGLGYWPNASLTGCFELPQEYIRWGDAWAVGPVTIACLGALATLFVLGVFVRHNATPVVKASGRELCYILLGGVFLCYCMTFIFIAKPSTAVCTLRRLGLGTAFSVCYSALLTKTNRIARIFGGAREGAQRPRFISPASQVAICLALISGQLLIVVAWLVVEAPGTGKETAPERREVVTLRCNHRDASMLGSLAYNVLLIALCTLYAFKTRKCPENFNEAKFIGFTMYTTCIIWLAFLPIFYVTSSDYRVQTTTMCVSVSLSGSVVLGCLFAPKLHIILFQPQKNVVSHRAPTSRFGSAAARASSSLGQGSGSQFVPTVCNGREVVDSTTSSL

As a reminder, the EC50 is the concentration that produces a half-maximal response. On to `C#CCOc1ccc(Cl)cc1C1CCN(Cc2nc3ccccc3n2C)CC1` [compound 238], for which the concentration giving a half-maximal response (EC50) turned out to be 78.1 nM. For `C#CCOc1ccc(Cl)cc1C1CCN(Cc2nc3ccccc3n2CCOC)CC1` [compound 239] the value was 79 nM.

As for `COc1ccccc1C1CCN(Cc2nc3ccccc3n2CCF)CC1` [compound 240], the EC50 came to 146 nM.

Take `FCCn1c(CN2CCC(c3ccccc3F)CC2)nc2ccccc21` [compound 241]: the EC50 was 217 nM. As for `FCCn1c(CN2CCC(c3ccc(C(F)(F)F)cc3)CC2)nc2ccccc21` [compound 242], the EC50 turned out to be 301 nM.

Regarding `FCCn1c(CN2CCC(c3ccccc3C(F)(F)F)CC2)nc2ccccc21` [compound 243], the EC50 amounted to 1260 nM. For `COc1ccccc1C1CCN(Cc2nc3ccccc3n2C2CC2)CC1` [compound 244] the value was 484 nM. `FC(F)(F)c1ccccc1C1CCN(Cc2nc3ccccc3n2C2CC2)CC1` [compound 245]: the concentration for a half-maximal effect (EC50) came to 3350 nM. To `COCCn1c(CN2CCC(c3ccc(C(F)(F)F)cc3)CC2)nc2ccccc21` [compound 246] belongs 418 nM. Take `FC(F)(F)c1ccc(C2CCN(Cc3nc4ccccc4n3C3CC3)CC2)cc1` [compound 247]: the 50% effective concentration (EC50) was 821 nM. For `COCCn1c(CN2CCC(c3ccccc3OC)CC2)nc2ccccc21` [compound 248], the EC50 came out at 320 nM. In the case of `COCCn1c(CN2CCC(c3ccccc3F)CC2)nc2ccccc21` [compound 249], the EC50 worked out at 251 nM. In the case of `COCCn1c(CN2CCC(c3ccccc3C(F)(F)F)CC2)nc2ccccc21` [compound 250], the EC50 was found to be 545 nM.

On to `Fc1ccccc1C1CCN(Cc2nc3ccccc3n2C2CC2)CC1` [compound 251], for which the EC50 came out at 1340 nM. For `FCn1c(CN2CCC(c3ccccc3F)CC2)nc2ccccc21` [compound 252] the value was 225 nM; for `FCn1c(CN2CCC(c3ccccc3F)CC2)nc2ccccc21` [compound 253], 116 nM; for `COc1ccccc1C1CCN(Cc2nc3ccccc3n2CF)CC1` [compound 254], 62.4 nM. For the compound `FCn1c(CN2CCC(c3ccc(C(F)(F)F)cc3)CC2)nc2ccccc21` [compound 255], the EC50 amounted to 164 nM. Take `FCn1c(CN2CCC(c3ccccc3C(F)(F)F)CC2)nc2ccccc21` [compound 256]: the EC50 stood at 422 nM.

For `Cn1c(CN2CCC(c3ccccc3C(F)(F)F)CC2)nc2ccccc21` [compound 257], the EC50 worked out at 109 nM. Take `COc1ccccc1C1CCN(Cc2nc3cc(F)c(F)cc3n2C)CC1` [compound 258]: the EC50 amounted to 80.5 nM. `Cn1c(CN2CCC(c3ccccc3F)CC2)nc2cc(F)c(F)cc21` [compound 259]: the EC50 was 468 nM. With `Cn1c(CN2CCC(c3ccc(C(F)(F)F)cc3)CC2)nc2cc(F)c(F)cc21` [compound 260], the EC50 came to 422 nM. Turning to `Cn1c(CN2CCC(c3ccccc3C(F)(F)F)CC2)nc2cc(F)c(F)cc21` [compound 261], the half-maximal effective concentration (EC50) was 2310 nM. On to `Cn1c(CN2CCC3(CC2)COc2ccccc23)nc2ccccc21` [compound 262], for which the EC50 was found to be 1170 nM. Consider `COc1ccccc1C1CCN(Cc2nc3cc(Br)ccc3n2C)CC1` [compound 263], for which the EC50 was 242 nM. Take `Cn1c(CN2CCC(c3ccccc3O)CC2)nc2ccccc21` [compound 265]: the EC50 is 1440 nM.

As for `COc1ccccc1C1CCN(Cc2nc3c(C#N)cccc3n2C)CC1` [compound 266], the EC50 is 3350 nM. `Cc1cccc2c1nc(CN1CCC(c3ccccc3F)CC1)n2C` [compound 267]: the EC50 came out at 249 nM. As for `Cn1c(CN2CCC(c3ccccc3F)CC2)nc2c(C#N)cccc21` [compound 268], the EC50 turned out to be 1710 nM. As for `Cn1c(CN2CCC(c3ccccc3F)CC2)nc2cc(Br)ccc21` [compound 269], the half-maximal effective concentration (EC50) came out at 445 nM. Turning to `COc1ccccc1C1CCN(Cc2nc3c(Cl)cccc3n2C)CC1` [compound 270], the EC50 was found to be 838 nM. To `COc1ccccc1C1CCN(Cc2nc3c(F)cccc3n2C)CC1` [compound 271] belongs 21.1 nM.

The record behind these values is patent publication US20080280933A1, “BENZIMIDAZOLYL COMPOUNDS” (priority 2006, published 2008).
